Reference: patent US11759462B2, “Spirocyclic compounds as tryptophan hydroxylase inhibitors” (priority 2013, dated 2023)
Like-named read-outs stand apart in the source and are kept apart here.

What was measured:
[1] = system: jejunal mucosal 5-HT in mice (C57 BL6); assay: Intestinal 5-HT depletion assay (Example B, single 150 mg/kg oral dose); format: in vivo, mouse; conditions: one day after oral administration of a single 150 mg/kg dose, P-value class (ANOVA)
Summary of the method: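 C57 BL6 mice received one 150 mg/kg oral gavage dose; jejunal mucosa was homogenized in acidic trichloroacetic acid buffer and 5-HT measured by HPLC. Levels normalized to BCA protein, expressed as mean percent reduction versus vehicle ± SEM; ANOVA significance.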

[2] = system: jejunal mucosal 5-HT in mice (C57 BL6); assay: Reduction of mucosal 5-HT concentrations (Example C, repeated oral dosing); format: in vivo, mouse; conditions: P-value class
Description: The efficacy of the TPH1 inhibitors of the invention was assessed for the ability to decrease intestinal serotonin concentration in mice. Mice (C57 BL6) were administered an oral dose of 10 or 50 mg/kg of the test article in the evening. […] Following an overnight fast, each animal was euthanized by exsanguination under isoflurane anesthesia. Jejunal intestinal mucosa was isolated and homogenized in […] of a buffer containing 0.3M trichloroacetic acid, 0.1M sodium acetate, 10 mM EDTA, 20 mM sodium bisulfate and 50 mM ascorbic acid. Following centrifugation the 5-HT levels in the supernatants were measured by HPLC. The remaining mucosal pellet was solubilized overnight at 37° C. in a 0.1% sodium dodecyl sulfate buffer in 0.1N NaOH followed by determination of protein concentrations using a BCA protein assay (Pierce, Rockford, Ill.). 5-HT levels were normalized to protein and data were expressed as mean percent reduction of mucosal 5-HT levels relative to vehicle control±SEM (percent 5-HT reduction). All animal studies were carried out with protocols approved by the Institutional Animal Care and Use Committee. P-values, indicating statistical significance of the data (ANOVA) are provided in the table: * refers to P<0.05,** refers to P<0.01, *** refers to P<0.005, and **** refers to P<0.0005.

[3] = biological target: T1, Recombinant human TPH1 (MBP tagged) (Homo sapiens, UniProt P17752); assay: TPH1 in vitro inhibition assay (kinetic fluorescence); format: biochemical
T1 construct: cloning full length human TPH1 cDNA in to a bacterial pMAL-c5E expression vector; made in house; host or cells: E. coli BL21 (DE3)
T1 sequence (P17752 1-444): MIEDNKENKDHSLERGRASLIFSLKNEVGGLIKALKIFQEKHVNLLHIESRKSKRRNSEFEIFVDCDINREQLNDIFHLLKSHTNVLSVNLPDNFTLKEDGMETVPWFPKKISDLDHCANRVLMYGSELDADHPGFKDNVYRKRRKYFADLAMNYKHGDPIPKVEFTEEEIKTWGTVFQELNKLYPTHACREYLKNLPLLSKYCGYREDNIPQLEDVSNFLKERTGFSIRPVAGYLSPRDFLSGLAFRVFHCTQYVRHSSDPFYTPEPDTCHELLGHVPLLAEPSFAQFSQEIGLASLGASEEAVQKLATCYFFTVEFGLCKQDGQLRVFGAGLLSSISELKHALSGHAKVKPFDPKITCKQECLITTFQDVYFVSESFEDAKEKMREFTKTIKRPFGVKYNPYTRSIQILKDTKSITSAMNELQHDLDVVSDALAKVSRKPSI
Summary of the method: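 Final mix: 15 nM MBP-TPH1, 30 μM Trp, 36 μM 6-methyltetrahydropterin, 25 μM ferrous ammonium sulfate, 50 mM MES pH 7.1, 1% DMSO, room temperature.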

[4] = after three oral doses (first 10 or 50 mg/kg, then two doses of 50 mg/kg) (title)

Structure (SMILES) | Efficacy (statistical significance of reduction of mucosal 5-HT concentrations relative to vehicle) [1] | Efficacy (statistical significance of reduction of mucosal 5-HT concentrations relative to vehicle) [2, 4] | IC50 ([3]; read-out: TPH1 Range (TPH1 inhibition IC50)) | Efficacy (statistical significance of reduction of mucosal 5-HT concentrations relative to vehicle) ([2]; (title)) | IC50 ([3]; TPH1 Range (TPH1 inhibition IC50))
Cc1ccn(-c2cc(-c3ccc(OC(C)C)cc3)ccc2[C@@H](Oc2cc(N3CCC4(CC3)CN[C@H](C(=O)O)C4)nc(N)n2)C(F)(F)F)n1 [Example 1l, (S)-8-(2-amino-6-((R)-2,2,2-trifluoro-1-(4′-isopropoxy-3-(3-methyl-1H-pyrazol-1-yl)-[1,1′-biphenyl]-4-yl)ethoxy)pyrimidin-4-yl)-2,8-diazaspiro[4.5]decane-3-carboxylic acid] | **** (and refers to P<0.0005) | *** (*** refers to P<0.005) | < 50 nM | – | –
Cc1ccn(-c2cc(-c3ccc(C)c(C)c3)ccc2[C@@H](Oc2cc(N3CCC4(CC3)CN[C@H](C(=O)O)C4)nc(N)n2)C(F)(F)F)n1 [Example 1m, (S)-8-(2-amino-6-((R)-1-(3′,4′-dimethyl-3-(3-methyl-1H-pyrazol-1-yl)-[1,1′-biphenyl]-4-yl)-2,2,2-trifluoroethoxy)pyrimidin-4-yl)-2,8-diazaspiro[4.5]decane-3-carboxylic acid] | *** (*** refers to P<0.005) | – | – | * (* refers to P<0.05) | < 50 nM
CCOC(=O)[C@@H]1CC2(CCN(c3cc(O[C@H](c4ccc(Cl)cc4-n4ccc(C)n4)C(F)(F)F)nc(N)n3)CC2)CN1 [Example 63az, (S)-ethyl 8-(2-amino-6-((R)-1-(4-chloro-2-(3-methyl-1H-pyrazol-1-yl)phenyl)-2,2,2-trifluoroethoxy)pyrimidin-4-yl)-2,8-diazaspiro[4.5]decane-3-carboxylate] | *** (*** refers to P<0.005) | *** (*** refers to P<0.005) | – | – | –
CCOC(=O)[C@@H]1CC2(CCN(c3cc(O[C@H](c4ccc(-c5ccc(C)c(C)c5)cc4-n4ccc(C)n4)C(F)(F)F)nc(N)n3)CC2)CN1 [Example 63bd, (S)-ethyl 8-(2-amino-6-((R)-1-(3′,4′-dimethyl-3-(3-methyl-1H-pyrazol-1-yl)-[1,1′-biphenyl]-4-yl)-2,2,2-trifluoroethoxy)pyrimidin-4-yl)-2,8-diazaspiro[4.5]decane-3-carboxylate] | *** (*** refers to P<0.005) | *** (*** refers to P<0.005) | – | – | –
CCCc1ccc([C@@H](Oc2cc(N3CCC4(CC3)CN[C@H](C(=O)OCC)C4)nc(N)n2)C(F)(F)F)c(-n2ccc(C)n2)c1 [Example 63bf, (S)-ethyl 8-(2-amino-6-((R)-2,2,2-trifluoro-1-(2-(3-methyl-1H-pyrazol-1-yl)-4-propylphenyl)ethoxy)pyrimidin-4-yl)-2,8-diazaspiro[4.5]decane-3-carboxylate] | **** (and refers to P<0.0005) | *** (*** refers to P<0.005) | – | – | –
CCCCc1ccc([C@@H](Oc2cc(N3CCC4(CC3)CN[C@H](C(=O)OCC)C4)nc(N)n2)C(F)(F)F)c(-n2ccc(C)n2)c1 [Example 63bg, (S)-ethyl 8-(2-amino-6-((R)-1-(4-butyl-2-(3-methyl-1H-pyrazol-1-yl)phenyl)-2,2,2-trifluoroethoxy)pyrimidin-4-yl)-2,8-diazaspiro[4.5]decane-3-carboxylate] | **** (and refers to P<0.0005) | *** (*** refers to P<0.005) | – | – | –
CCOC(=O)[C@@H]1CC2(CCN(c3cc(O[C@H](c4cc(-c5ccc(C)c(C)c5)ccc4-n4ccc(C)n4)C(F)(F)F)nc(N)n3)CC2)CN1 [Example 63bn, (S)-ethyl 8-(2-amino-6-((R)-1-(3′,4′-dimethyl-4-(3-methyl-1H-pyrazol-1-yl)-[1,1′-biphenyl]-3-yl)-2,2,2-trifluoroethoxy)pyrimidin-4-yl)-2,8-diazaspiro[4.5]decane-3-carboxylate] | **** (and refers to P<0.0005) | **** (**** refers to P<0.0005) | – | – | –
CCCc1ccc(-n2ccc(C)n2)c([C@@H](Oc2cc(N3CCC4(CC3)CN[C@H](C(=O)OCC)C4)nc(N)n2)C(F)(F)F)c1 [Example 63bo, (S)-ethyl 8-(2-amino-6-((R)-2,2,2-trifluoro-1-(2-(3-methyl-1H-pyrazol-1-yl)-5-propylphenyl)ethoxy)pyrimidin-4-yl)-2,8-diazaspiro[4.5]decane-3-carboxylate] | **** (and refers to P<0.0005) | *** (*** refers to P<0.005) | – | – | –
CCOC(=O)[C@@H]1CC2(CCN(c3cc(O[C@H](c4cc(CC)ccc4-n4ccc(C)n4)C(F)(F)F)nc(N)n3)CC2)CN1 [Example 63bp, (S)-ethyl 8-(2-amino-6-((R)-1-(5-ethyl-2-(3-methyl-1H-pyrazol-1-yl)phenyl)-2,2,2-trifluoroethoxy)pyrimidin-4-yl)-2,8-diazaspiro[4.5]decane-3-carboxylate] | **** (and refers to P<0.0005) | *** (*** refers to P<0.005) | – | – | –
CCOC(=O)[C@@H]1CC2(CCN(c3cc(O[C@H](c4ccc(Cl)cc4-c4cccc(S(N)(=O)=O)c4)C(F)(F)F)nc(N)n3)CC2)CN1 [Example 63ch, (S)-ethyl 8-(2-amino-6-((R)-1-(5-chloro-3′-sulfamoyl-[1,1′-biphenyl]-2-yl)-2,2,2-trifluoroethoxy)pyrimidin-4-yl)-2,8-diazaspiro[4.5]decane-3-carboxylate] | *** (*** refers to P<0.005) | *** (*** refers to P<0.005) | – | – | –
CCOC(=O)[C@@H]1CC2(CCN(c3cc(O[C@H](c4ccc(Cl)cc4-c4cccc(S(C)(=O)=O)c4)C(F)(F)F)nc(N)n3)CC2)CN1 [Example 63cj, (S)-ethyl 8-(2-amino-6-((R)-1-(5-chloro-3′-(methylsulfonyl)-[1,1′-biphenyl]-2-yl)-2,2,2-trifluoroethoxy)pyrimidin-4-yl)-2,8-diazaspiro[4.5]decane-3-carboxylate] | *** (*** refers to P<0.005) | ** (** refers to P<0.01) | – | – | –
CCOC(=O)[C@@H]1CC2(CCN(c3cc(O[C@H](c4ccc(-c5ccc6ncccc6c5)cc4)C(F)(F)F)nc(N)n3)CC2)CN1 [Example 63cl, (S)-ethyl 8-(2-amino-6-((R)-2,2,2-trifluoro-1-(4-(quinolin-6-yl)phenyl)ethoxy)pyrimidin-4-yl)-2,8-diazaspiro[4.5]decane-3-carboxylate] | *** (*** refers to P<0.005) | – | – | *** (*** refers to P<0.005) | –
CCOC(=O)c1ccc(-c2ccc(-n3ccc(C)n3)c([C@@H](Oc3cc(N4CCC5(CC4)CN[C@H](C(=O)OCC)C5)nc(N)n3)C(F)(F)F)c2)cc1 [Example 63dc, (S)-ethyl 8-(2-amino-6-((R)-1-(4′-(ethoxycarbonyl)-4-(3-methyl-1H-pyrazol-1-yl)-[1,1′-biphenyl]-3-yl)-2,2,2-trifluoroethoxy)pyrimidin-4-yl)-2,8-diazaspiro[4.5]decane-3-carboxylate] | *** (*** refers to P<0.005) | *** (*** refers to P<0.005) | – | – | –
